Assay results as given in patent US20210032257A1, “(E)-1-(4-(DIMETHYLAMINO)BUT-2-ENOYL)PYRROLIDIN-3-YL 4-((3-ISOPROPYL-5-METHYLPYRAZOLO[1,5-A]PYRIMIDIN-7-YL)AMINO)PIPERIDINE-1-CARBOXYLATE FOR INHIBITING CDK7” (Eli Lilly and Company, priority 2017, published 2021).

How the values were obtained:
[1] = system: phospho-carboxyl terminal domain (Ser2) in HCT116 cells; test: p-CTD (S2) cell based Acumen assay; details: Homo sapiens, HCT-116, 4 hours, read-out: relative IC50 for phosphoCTD (S2)
Description: HCT116 cells (ATCC CCL-247) are cultured in McCoy's 5A Medium Modified media supplemented with 10% FBS, 1% NaPyr and 1% Pen/Strep and plated (prior to becoming 70% confluent) in 96-well flat-bottom plates at a density of 5,000 cells per well in 100 μL volume. The cells are then incubated overnight in a cell culture incubator (5% CO2, 95% Relative Humidity (RH) and 37° C.) and allowed to attach to the plate. The following morning the cells are dosed with compounds. Compound inhibitors are first solubilized at 60 μM in culture medium containing 0.6% DMSO. Subsequently compound serial dilutions (1:3) are prepared over a […] to […] range. […]
The following day cells are washed three times with PBS (100 μL/well) and incubated with 50 μL/well of secondary antibody (1:2000 dilution, Goat anti-rabbit IgM ALEXA FLUOR™ 488) in PBS for 1 hour at RT. […] Plates are analyzed on Acumen on FL2 (mean intensity), and FL3 (total intensity). Fluorescence plates are scanned with ACUMEN EXPLORER™ [Laser-scanning fluorescence microplate cytometer manufactured by TTP LABTECH LTD] to measure anti-phospho-carboxyl terminal domain at Serine 2 (pCTD). […]
The IC50 is determined by curve fitting to a four parameter logistic for each output using GENE DATA™.

CDK12/CycK = target: T1, CDK12/CycK (Homo sapiens, UniProt Q9NYV4); test: ProQinase radiometric protein kinase assay, 10 concentrations; format: biochemical; details: kinase 14.7 nM, ATP 0.3 μM
T1 construct: purchased ProQinase
Description: (§1) A radiometric protein kinase assay (33PANQINASE® Activity Assay, ProQinase) is used for measuring the kinase activity of the 320 protein kinases. All kinase assays are performed in 96-well FLASHPLATES™ in a 50 μL reaction volume. The reaction cocktail is pipetted in 4 steps in the following order:
(§2) All PKC assays (except the PKC-mu and the PKC-nu assay) additionally contain 1 mM CaCl2). 4 mM EDTA, 5 μg/mL Phosphatidylserine and 1 μg/mL 1,2-Dioleyl-glycerol. The CAMK1D, CAMK2A, CAMK2B, CAMK2D, CAMK2G, CAMK4, CAMKK1, CAMKK2, DAPK2, EEF2K, MYLK, MYLK2 and MYLK3 assays additionally contain 1 μg/mL Calmodulin and 0.5 mM CaCl2). The PRKG1 and PRKG2 assays additionally contain 1 μM cGMP. The DNA-PK assay additionally contained 2.5 μg/mL DNA.
(§3) The protein kinase reaction cocktails are incubated at 30° C. for 60 minutes. […] Kinases from external vendors (CAR=Carna Biosciences Inc.; INV=Life Technologies (Invitrogen Corporation™); MIL=Merck-Millipore (Millipore Corporation™), see Table 1) are expressed, purified and quality-controlled by virtue of the vendors readings.
(§4) CDK12 and CDK13 (ProQinase) are tested essentially as above but separately at 10 concentrations ([…] to […]) using semi-logarithmic dilutions. For the 10 points, the analysis the residual activities for each concentration and the compound IC50 values are calculated using QUATTRO® WORKFLOW™ V3.1.1. […]

CDK13/CycK = target: T2, CDK13/CycK (Homo sapiens, UniProt Q14004); test: as above; format: biochemical; details: kinase 29.2 nM, ATP 0.3 μM
T2 construct: purchased ProQinase
Description: as §1, §2, §3, §4

CDK9/cyclinT1 = CDK9/cyclinT1 (Homo sapiens, UniProt P50750); test: Assay for inhibition of CDK9/CyclinT1 kinase activity (radiolabel filter binding)
Chain of CDK9/cyclinT1 (P50750 whole entry): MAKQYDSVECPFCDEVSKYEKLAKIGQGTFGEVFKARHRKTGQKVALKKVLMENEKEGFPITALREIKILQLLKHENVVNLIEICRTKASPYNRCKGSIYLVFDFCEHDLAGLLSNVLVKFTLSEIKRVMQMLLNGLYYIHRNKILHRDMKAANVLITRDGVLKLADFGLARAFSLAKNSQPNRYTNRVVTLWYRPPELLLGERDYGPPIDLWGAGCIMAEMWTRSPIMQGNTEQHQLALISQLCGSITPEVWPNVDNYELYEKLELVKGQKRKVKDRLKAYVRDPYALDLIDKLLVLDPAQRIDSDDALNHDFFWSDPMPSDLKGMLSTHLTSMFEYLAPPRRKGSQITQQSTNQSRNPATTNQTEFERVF
Chain of CDK9/cyclinT1 (O60563 whole entry partner): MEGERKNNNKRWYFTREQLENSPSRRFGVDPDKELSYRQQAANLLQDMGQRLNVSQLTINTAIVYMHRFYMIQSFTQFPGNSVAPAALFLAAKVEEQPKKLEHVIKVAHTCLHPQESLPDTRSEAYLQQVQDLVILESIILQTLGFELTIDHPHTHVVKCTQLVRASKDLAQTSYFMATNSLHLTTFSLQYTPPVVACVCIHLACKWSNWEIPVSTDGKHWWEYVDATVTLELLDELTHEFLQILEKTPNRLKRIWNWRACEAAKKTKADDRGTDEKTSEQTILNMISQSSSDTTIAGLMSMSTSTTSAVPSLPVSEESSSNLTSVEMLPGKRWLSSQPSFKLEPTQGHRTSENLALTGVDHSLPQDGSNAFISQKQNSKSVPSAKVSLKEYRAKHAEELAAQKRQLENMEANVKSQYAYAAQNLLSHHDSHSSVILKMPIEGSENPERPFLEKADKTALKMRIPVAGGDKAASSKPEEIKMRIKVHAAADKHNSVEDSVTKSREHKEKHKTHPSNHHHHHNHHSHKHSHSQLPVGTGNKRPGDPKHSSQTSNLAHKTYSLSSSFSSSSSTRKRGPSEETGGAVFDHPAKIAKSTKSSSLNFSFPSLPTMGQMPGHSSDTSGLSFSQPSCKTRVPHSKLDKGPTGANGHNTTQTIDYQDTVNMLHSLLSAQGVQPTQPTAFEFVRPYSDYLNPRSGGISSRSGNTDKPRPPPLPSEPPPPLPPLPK
Description: The IC50 determination for CDK7 and CDK9 are determined as follows.
The IC50 activity of the inhibitor is determined using radiolabel filter binding (FB) assays using the purified human recombinant enzyme in the presence of ATP and peptide substrate. The ATP concentrations chosen are at or near the enzyme Km for ATP. Reactions are carried out in 96 well polystyrene plates in a final volume of 25 μL per well. 5 μL of test compound in 20% DMSO, 10 μL of substrate solution (ATP//[^33P]ATP and CDK7/9 tide) and 10 μL of enzyme solution are mixed. […] The enzyme solution is prepared for a final concentration of 7.5 nM CDK9/cyclinT1 enzyme [Proqinase 0371-0345-1 (Lot 004)] diluted in kinase buffer. Test compounds are serially diluted 1:3 in 20% DMSO to create a 10 point curve at a starting concentration of 2 μM. 20% DMSO buffer alone without test compound is employed as high control (full activity in the absence of any inhibitor), 500 mM EDTA is used to determine the level of background in the absence of enzyme activity (low control). After mixing 5 μL of compounds with 10 μL of enzyme solution the plate is incubated for 0 or 180 minutes at 22° C. After that time the reaction is initiated by the addition of 10 μL substrate solution and incubated for 60 minutes at 22° C. […] 80 μL of MICROSCINT™ is added to each well and read on a scintillation counter after an hour. […]

T2 sequence (Q14004 whole entry): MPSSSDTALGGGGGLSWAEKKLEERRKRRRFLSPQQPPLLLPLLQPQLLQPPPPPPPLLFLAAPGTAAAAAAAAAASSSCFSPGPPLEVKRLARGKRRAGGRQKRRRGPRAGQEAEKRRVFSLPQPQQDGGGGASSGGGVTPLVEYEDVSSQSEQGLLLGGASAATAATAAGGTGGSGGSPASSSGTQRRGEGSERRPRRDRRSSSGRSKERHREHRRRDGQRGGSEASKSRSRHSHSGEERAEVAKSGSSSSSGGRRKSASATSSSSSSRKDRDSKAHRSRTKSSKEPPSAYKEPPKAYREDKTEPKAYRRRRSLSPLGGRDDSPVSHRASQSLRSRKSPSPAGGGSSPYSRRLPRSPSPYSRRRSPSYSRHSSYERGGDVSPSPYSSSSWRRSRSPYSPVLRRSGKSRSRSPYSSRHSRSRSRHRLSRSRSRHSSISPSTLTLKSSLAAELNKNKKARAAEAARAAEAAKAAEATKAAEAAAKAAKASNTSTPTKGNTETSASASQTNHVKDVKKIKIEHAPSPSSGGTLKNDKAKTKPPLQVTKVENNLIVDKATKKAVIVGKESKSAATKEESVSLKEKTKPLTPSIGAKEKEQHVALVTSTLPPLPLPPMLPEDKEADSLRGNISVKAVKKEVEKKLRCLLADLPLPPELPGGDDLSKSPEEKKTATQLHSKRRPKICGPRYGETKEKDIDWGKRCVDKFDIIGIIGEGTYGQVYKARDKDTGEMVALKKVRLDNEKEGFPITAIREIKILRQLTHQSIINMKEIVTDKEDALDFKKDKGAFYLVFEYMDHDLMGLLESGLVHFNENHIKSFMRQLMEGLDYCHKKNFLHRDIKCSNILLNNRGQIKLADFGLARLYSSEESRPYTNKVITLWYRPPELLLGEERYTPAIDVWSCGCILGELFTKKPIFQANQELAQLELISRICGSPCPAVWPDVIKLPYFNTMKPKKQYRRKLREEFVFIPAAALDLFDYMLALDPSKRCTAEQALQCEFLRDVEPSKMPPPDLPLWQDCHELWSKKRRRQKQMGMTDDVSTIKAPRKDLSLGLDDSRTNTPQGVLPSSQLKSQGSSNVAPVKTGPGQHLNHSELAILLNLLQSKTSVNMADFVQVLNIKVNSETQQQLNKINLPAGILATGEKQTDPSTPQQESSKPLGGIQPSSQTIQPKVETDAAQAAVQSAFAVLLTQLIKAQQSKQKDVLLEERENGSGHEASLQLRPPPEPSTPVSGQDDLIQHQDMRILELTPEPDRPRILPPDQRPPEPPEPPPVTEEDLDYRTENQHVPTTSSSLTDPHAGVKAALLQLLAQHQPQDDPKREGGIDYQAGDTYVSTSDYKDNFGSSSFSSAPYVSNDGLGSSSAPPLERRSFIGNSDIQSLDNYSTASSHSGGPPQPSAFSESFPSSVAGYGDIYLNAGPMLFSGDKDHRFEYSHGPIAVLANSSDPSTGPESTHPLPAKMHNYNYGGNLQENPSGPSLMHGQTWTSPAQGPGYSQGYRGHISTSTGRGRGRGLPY
T2 sequence (O75909 whole entry partner): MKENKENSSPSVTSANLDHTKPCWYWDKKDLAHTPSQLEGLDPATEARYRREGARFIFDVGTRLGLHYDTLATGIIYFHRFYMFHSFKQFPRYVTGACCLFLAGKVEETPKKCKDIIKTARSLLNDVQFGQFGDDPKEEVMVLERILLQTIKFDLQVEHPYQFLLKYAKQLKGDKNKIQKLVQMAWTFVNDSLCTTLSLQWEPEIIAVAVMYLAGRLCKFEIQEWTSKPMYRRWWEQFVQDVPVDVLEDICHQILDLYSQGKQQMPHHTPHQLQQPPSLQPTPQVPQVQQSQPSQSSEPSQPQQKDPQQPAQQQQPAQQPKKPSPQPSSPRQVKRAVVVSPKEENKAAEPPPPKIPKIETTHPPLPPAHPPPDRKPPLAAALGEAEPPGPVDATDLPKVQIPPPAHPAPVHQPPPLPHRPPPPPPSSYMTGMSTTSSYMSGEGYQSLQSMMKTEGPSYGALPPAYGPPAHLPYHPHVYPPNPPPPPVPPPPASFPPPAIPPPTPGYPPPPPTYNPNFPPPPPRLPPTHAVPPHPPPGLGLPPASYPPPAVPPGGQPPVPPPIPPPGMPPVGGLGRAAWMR
T1 sequence (Q9NYV4 whole entry): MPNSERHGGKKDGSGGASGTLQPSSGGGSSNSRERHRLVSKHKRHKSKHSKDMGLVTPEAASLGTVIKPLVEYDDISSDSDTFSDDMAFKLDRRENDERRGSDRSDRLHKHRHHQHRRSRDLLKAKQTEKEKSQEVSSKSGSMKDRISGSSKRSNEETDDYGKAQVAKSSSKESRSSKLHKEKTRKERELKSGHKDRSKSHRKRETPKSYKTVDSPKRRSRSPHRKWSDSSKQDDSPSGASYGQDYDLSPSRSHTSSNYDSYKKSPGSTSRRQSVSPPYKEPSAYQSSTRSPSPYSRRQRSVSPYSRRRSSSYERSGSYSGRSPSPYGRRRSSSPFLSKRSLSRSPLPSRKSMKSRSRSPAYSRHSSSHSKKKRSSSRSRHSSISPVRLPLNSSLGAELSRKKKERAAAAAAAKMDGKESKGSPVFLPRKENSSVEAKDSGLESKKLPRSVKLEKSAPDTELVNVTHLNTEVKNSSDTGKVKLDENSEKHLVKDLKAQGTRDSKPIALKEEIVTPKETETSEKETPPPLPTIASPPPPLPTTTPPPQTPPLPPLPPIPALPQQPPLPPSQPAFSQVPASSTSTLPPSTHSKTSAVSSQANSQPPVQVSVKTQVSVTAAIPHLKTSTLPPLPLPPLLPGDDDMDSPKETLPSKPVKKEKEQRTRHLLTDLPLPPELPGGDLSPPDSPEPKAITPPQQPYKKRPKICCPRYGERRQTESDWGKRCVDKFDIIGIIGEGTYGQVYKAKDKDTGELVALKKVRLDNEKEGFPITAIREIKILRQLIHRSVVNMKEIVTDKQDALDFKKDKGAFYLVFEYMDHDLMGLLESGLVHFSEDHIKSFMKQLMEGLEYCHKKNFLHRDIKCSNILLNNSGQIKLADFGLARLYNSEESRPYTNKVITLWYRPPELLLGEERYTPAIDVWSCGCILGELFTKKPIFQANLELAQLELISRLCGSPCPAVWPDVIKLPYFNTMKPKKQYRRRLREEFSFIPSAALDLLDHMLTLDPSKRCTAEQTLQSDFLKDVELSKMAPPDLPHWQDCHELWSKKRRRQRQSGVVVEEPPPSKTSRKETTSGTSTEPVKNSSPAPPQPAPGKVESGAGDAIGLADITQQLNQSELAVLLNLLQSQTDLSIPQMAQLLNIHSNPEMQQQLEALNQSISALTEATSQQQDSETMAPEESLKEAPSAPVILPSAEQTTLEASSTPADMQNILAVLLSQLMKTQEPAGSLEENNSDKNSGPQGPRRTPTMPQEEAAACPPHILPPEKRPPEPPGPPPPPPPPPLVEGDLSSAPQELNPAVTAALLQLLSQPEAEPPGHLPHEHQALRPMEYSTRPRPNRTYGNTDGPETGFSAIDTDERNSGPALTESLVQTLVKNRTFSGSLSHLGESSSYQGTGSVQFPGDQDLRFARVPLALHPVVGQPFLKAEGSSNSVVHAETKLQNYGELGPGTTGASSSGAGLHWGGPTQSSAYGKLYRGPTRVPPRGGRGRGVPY
T1 sequence (O75909 whole entry partner): as the sequence (O75909 whole entry partner) above

## Cc1cc(NC2CCN(C(=O)O[C@H]3CCN(C(=O)/C=C/CN(C)C)C3)CC2)n2ncc(C(C)C)c2n1 [Example 1, [(3S)-1-[(E)-4-(dimethylamino)but-2-enoyl]pyrrolidin-3-yl] 4-[(3-isopropyl-5-methyl-pyrazolo[1,5-a]pyrimidin-7-yl)amino]piperidine-1-carboxylate]
[1]
  IC50: > 2 µM
CDK12/CycK
  IC50: 14.8 µM
CDK13/CycK
  IC50: ≥ 20 µM
CDK9/cyclinT1
  IC50: 5.9 µM
